Results taken from US6734188B1, “Composition for treatment of constipation and irritable bowel syndrome” (priority 1999, dated 2004).

Columns and labels:
[1] = tested on: healthy, non-smoking volunteers; assay: Gut transit time study with radio opaque markers, oral naloxone with or without oral codeine (Example 1); assay type: in vivo, human; details: for Gut transit time, Maximum / Gut transit time, Mean / Gut transit time, Median / Gut transit time, Minimum: codeine 30 mg bd
Procedure: The study consisted of four 10-day study periods, with at least two weeks between each, which were in a randomised order and the capsules being administered daily in a double blind manner. […] The capsules were administered twice a day (“bd”).
The study protocol was as follows: On day 0, subjects were given capsule B and on days 1 to 9, were given capsules A and B. On days 3 to 6, the subjects took transit markers; packaged in distinctly coloured capsules, each containing 20 different shaped radio opaque marker pellets (Dunn Clinical Nutrition). From day 7, the subjects' next two bowel motions were collected. A normal diet was adhered to throughout the study period and recorded on days 3 to 6.

[2] = tested on: male volunteers; assay: Gut transit time study, fixed doses of naloxone with or without codeine (Example 2); assay type: in vivo, human; details: naloxone 5, 10 and 20 mg bd, Gelucire 53/10:42/12 95:5, Eudragit LS coated; with 30 mg bd codeine in second week
Procedure: In a further study, the procedure of Example 1 was substantially followed using Gelucire™ 53/10 & Gelucire™ 42/12 95:5 as the polyglycolised glyceride matrix.
The gut transit time was measured at the end of the first week. During the second week, each volunteer was also given 30 mg bd codeine and gut transit times measured again at the end of the second week.

[3] = tested on: patients with advanced cancer; details: patients with advanced cancer treated with an opioid analgesic; cited from earlier work
[4] = tested on: patient with Irritable Bowel Syndrome; details: administered intermittently, similar dosage form to Example 3
[5] = after parenteral administration; cited from earlier work
[6] = in vivo; cited from earlier work
[7] = 8 patients whose transit time was increased by codeine (n = 8), naloxone 10 mg bd
[8] = all patients (n = 12), oral capsules twice a day, naloxone 10 mg bd
[9] = all patients (n = 12), oral capsules twice a day, naloxone 10 mg bd (Gelucire 50/13:42/12 82.5:17.5, enteric coated)

Compound	Gut transit time, Maximum [1, 7] [h]	Gut transit time, Mean [1, 7] [h]	Gut transit time, Median [1, 7] [h]	Gut transit time, Minimum [1, 7] [h]	Gut transit time, Maximum [1, 8] [h]	Gut transit time, Mean [1, 8] [h]	Gut transit time, Median [1, 8] [h]	Gut transit time, Minimum [1, 9] [h]	Effect on gut transit time (in words) [2]	Laxative effect [3]	Clinical outcome in irritable bowel syndrome [4]	Effect on gut transit time (in words) ([1]; Example 1, naloxone 10 mg bd alone or with codeine 30 mg bd)	Plasma half-life [5]	Crossing of the blood-brain barrier [6]
COc1ccc2c3c1O[C@H]1[C@@H](O)C=C[C@H]4[C@@H](C2)N(C)CC[C@@]341 [Codeine, codeine phosphate]	84.00	66.17	67.85	50.42	84.00	57.27	56.76	25.22						
C=CCN1CC[C@]23c4c5ccc(O)c4O[C@H]2C(=O)CC[C@@]3(O)[C@H]1C5 [Naloxone, 17-allyl-6-deoxy-7,8-dihydro-14-hydroxy-6-oxonormorphine]	63.91	41.41	37.95	27.40	63.91	42.13	38.85	27.40	accelerate gut transit time	produce a laxative effect	substantial clinical benefit	reduced gut transit time	about 1 h	
C[N@+]1(CC2CC2)CC[C@]23c4c5ccc(O)c4O[C@H]2C(=O)CC[C@@]3(O)[C@H]1C5 [methylnaltrexone]														do not cross the blood-brain barrier to a significant extent
